Reference: the NIST ThermoML archive (doi:10.1021/acs.jced.8b00786)

Experiment: xn = mol fraction of the nth substance listed
Conditions: Liquid; for viscosity: Capillary tube (Ostwald / Ubbelohde) method; for mass density: Vibrating tube method

CC(C)CCCC(C)CCCC(C)CCCCC(C)CCCC(C)CCCC(C)C (stereo not drawn) [2,6,10,15,19,23-hexamethyltetracosane] + O=C=O
Conditions	mass density [kg/m3]	viscosity [mPa·s]
313.15 K, 2790 kPa, x2 = 0.199	796.7	11.4
313.15 K, 3900 kPa, x2 = 0.299	799.1	9.2
313.15 K, 5300 kPa, x2 = 0.519	804.5	5.1
313.15 K, 11290 kPa, x2 = 0.519	810.3	5.59
313.15 K, 12320 kPa, x2 = 0.299	805.8	10.5
313.15 K, 12560 kPa, x2 = 0.199	804.5	13.39
313.15 K, 21910 kPa, x2 = 0.519	819.7	6.47
313.15 K, 23100 kPa, x2 = 0.299	813.6	12.46
313.15 K, 23440 kPa, x2 = 0.199	812.5	16.14
313.15 K, 42900 kPa, x2 = 0.519	836.1	8.58
313.15 K, 44510 kPa, x2 = 0.299	828.1	17.08
313.15 K, 45240 kPa, x2 = 0.199	826.3	22.88
313.15 K, 57150 kPa, x2 = 0.519	846	10.52
313.15 K, 58570 kPa, x2 = 0.299	836.5	21.56
313.15 K, 60140 kPa, x2 = 0.199	834.5	28.7
313.15 K, 71140 kPa, x2 = 0.519	854.8	12.5
313.15 K, 73410 kPa, x2 = 0.299	844.9	26.51
313.15 K, 74430 kPa, x2 = 0.199	841.6	35.87
338.15 K, 3100 kPa, x2 = 0.199	780.2	5.61
338.15 K, 3320 kPa, x2 = 0.299	782.1	4.69
338.15 K, 6440 kPa, x2 = 0.519	787.1	2.96
338.15 K, 10860 kPa, x2 = 0.519	791.5	3.18
338.15 K, 11180 kPa, x2 = 0.299	788.3	5.36
338.15 K, 11690 kPa, x2 = 0.199	787.3	6.41
338.15 K, 21260 kPa, x2 = 0.519	801	3.58
338.15 K, 21990 kPa, x2 = 0.199	795.1	7.61
338.15 K, 21990 kPa, x2 = 0.299	796.2	6.16
338.15 K, 42140 kPa, x2 = 0.519	817.7	4.78
338.15 K, 42690 kPa, x2 = 0.299	810.4	8.3
338.15 K, 42870 kPa, x2 = 0.199	808.7	10.48
338.15 K, 56660 kPa, x2 = 0.519	827.7	5.67
338.15 K, 57330 kPa, x2 = 0.299	819.2	10.09
338.15 K, 57570 kPa, x2 = 0.199	817.1	12.79
338.15 K, 69970 kPa, x2 = 0.199	823.5	15.43
338.15 K, 70400 kPa, x2 = 0.519	836.4	6.59
338.15 K, 71030 kPa, x2 = 0.299	826.9	12.17
363.15 K, 2670 kPa, x2 = 0.199	763.2	3.2
363.15 K, 3820 kPa, x2 = 0.299	766.2	2.86
363.15 K, 7280 kPa, x2 = 0.519	769.5	1.93
363.15 K, 10740 kPa, x2 = 0.519	772.7	2.06
363.15 K, 10840 kPa, x2 = 0.299	771.7	3.14
363.15 K, 11090 kPa, x2 = 0.199	770.2	3.71
363.15 K, 21180 kPa, x2 = 0.299	779.2	3.59
363.15 K, 21340 kPa, x2 = 0.519	782.5	2.31
363.15 K, 21420 kPa, x2 = 0.199	778.2	4.33
363.15 K, 42180 kPa, x2 = 0.519	799.3	3
363.15 K, 42250 kPa, x2 = 0.299	793.2	4.8
363.15 K, 42490 kPa, x2 = 0.199	792.2	5.75
363.15 K, 56170 kPa, x2 = 0.519	809.2	3.43
363.15 K, 56390 kPa, x2 = 0.299	801.8	5.69
363.15 K, 56730 kPa, x2 = 0.199	800.5	6.83
363.15 K, 70120 kPa, x2 = 0.519	818	4.08
363.15 K, 70320 kPa, x2 = 0.299	809.6	6.81
363.15 K, 70780 kPa, x2 = 0.199	807.9	8.08
